Data published in the supplement of paper PMC5908809.

How the values were obtained:
[1] = test system: normal NK cells expanded with K562-aAPC; experiment: drug sensitivity score (DSS) (DSS units); higher = more sensitive; extreme values may be limits of the assay; details: 72 h; IL-2 2.5 ng/mL
Description: (§1)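 Drug sensitivity and resistance testing on K562-aAPC-expanded normal NK cells: 5 concentrations (10-fold steps over a 10,000-fold range), 72 h at 37 °C, viability by CellTiter-Glo normalised to DMSO and benzethonium chloride controls; DSS from the fitted curve.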

[2] = test system: SNK-6 (IL-2 2.5 ng/mL); experiment: percent inhibition of viability; higher = more inhibition; details: 72 h
[3] = test system: normal primary NK cells, pool 3 (3 donors) (IL-2 2.5 ng/mL); experiment: as above; details: 72 h
[4] = test system: IMC-1 (IL-2 20 ng/mL); experiment: as above; details: 72 h
[5] = test system: KHYG-1 (IL-2 2.5 ng/mL); experiment: as above; details: 72 h
[6] = test system: DERL-7 (IL-2 2.5 ng/mL); experiment: as above; details: 72 h
[7] = test system: normal primary NK cells, pool 1 (3 donors) (IL-2 2.5 ng/mL); experiment: as above; details: 72 h
[8] = test system: NKL (IL-2 2.5 ng/mL); experiment: as above; details: 72 h
[9] = test system: normal primary NK cells, pool 1 (3 donors), resting (IL-2 0 ng/mL); experiment: as above; details: 72 h
[10] = test system: YT (IL-2 2.5 ng/mL); experiment: as above; details: 72 h
[11] = test system: normal primary NK cells, pool 2 (3 donors) (IL-2 2.5 ng/mL); experiment: as above; details: 72 h
[12] = test system: KAI3 (IL-2 2.5 ng/mL); experiment: as above; details: 72 h
[13] = test system: NK-YS (IL-2 2.5 ng/mL); experiment: as above; details: 72 h
[14] = test system: NK-92 (IL-2 2.5 ng/mL); experiment: as above; details: 72 h
[15] = test system: normal NK cells expanded with K562-aAPC; experiment: as above; details: 72 h, IL-2 2.5 ng/mL
Description: as §1

[16] = test system: SNK-6 (IL-2 2.5 ng/mL); experiment: drug sensitivity score (DSS) (DSS units); higher = more sensitive; extreme values may be limits of the assay; details: 72 h
[17] = test system: normal primary NK cells, pool 3 (3 donors) (IL-2 2.5 ng/mL); experiment: as above; details: 72 h
[18] = test system: IMC-1 (IL-2 20 ng/mL); experiment: as above; details: 72 h
[19] = test system: KHYG-1 (IL-2 2.5 ng/mL); experiment: as above; details: 72 h
[20] = test system: DERL-7 (IL-2 2.5 ng/mL); experiment: as above; details: 72 h
[21] = test system: normal primary NK cells, pool 1 (3 donors) (IL-2 2.5 ng/mL); experiment: as above; details: 72 h
[22] = test system: NKL (IL-2 2.5 ng/mL); experiment: as above; details: 72 h
[23] = test system: normal primary NK cells, pool 1 (3 donors), resting (IL-2 0 ng/mL); experiment: as above; details: 72 h
[24] = test system: YT (IL-2 2.5 ng/mL); experiment: as above; details: 72 h
[25] = test system: normal primary NK cells, pool 2 (3 donors) (IL-2 2.5 ng/mL); experiment: as above; details: 72 h
[26] = test system: KAI3 (IL-2 2.5 ng/mL); experiment: as above; details: 72 h
[27] = test system: NK-YS (IL-2 2.5 ng/mL); experiment: as above; details: 72 h
[28] = test system: NK-92 (IL-2 2.5 ng/mL); experiment: as above; details: 72 h

CN1CCN(C2CCN(C(=O)Nc3cc(Oc4ccc(NC(=O)C5(C(=O)Nc6ccc(F)cc6)CC5)c(F)c4)ccn3)CC2)CC1 [Golvatinib] (max concentration tested 2500 nM)
Details	drug sensitivity score
[1]	1.59
[16]	0
[17]	0
[18]	0
[19]	3.05
[20]	0.2
[21]	0.66
[22]	1.26
[23]	1.23
[24]	1.11
[25]	0
[26]	1.75
[27]	0.08
[28]	4.41

percent inhibition of viability [%]
Details	0.25 nM	2.5 nM	25 nM	250 nM	2500 nM
[2]	-15.4	-12	-10.5	-8.86	2.23
[3]	-5.97	4.22	1.77	0.21	-2.7
[4]	-9.45	-2.35	-2.39	5.73	3.69
[5]	-11.8	-6.81	-7.1	2.14	52.1
[6]	-1.96	-0.71	1.22	-0.87	15.2
[7]	-2.39	15	8.72	9.1	11.9
[8]	-12.1	-3.62	2.15	8.61	20.8
[9]	-3.44	12.3	5.91	13.5	11.9
[10]	-6.16	-1.34	-3.26	2.58	22.1
[11]	-0.98	2.77	11.2	-2.79	3.25
[12]	-7	-3.9	0.53	6.28	24
[13]	-10.5	-6.07	-5.82	0.77	12.1
[14]	-11.7	-1.86	-7.52	14.7	44.5
[15]	-2.77	-6.95	-4.34	5.19	23.6

CC(C)C[C@H](NC(=O)[C@@H](COC(C)(C)C)NC(=O)[C@H](Cc1ccc(O)cc1)NC(=O)[C@H](CO)NC(=O)[C@H](Cc1c[nH]c2ccccc12)NC(=O)[C@H](Cc1cnc[nH]1)NC(=O)[C@@H]1CCC(=O)N1)C(=O)N[C@@H](CCCNC(=N)N)C(=O)N1CCC[C@H]1C(=O)NNC(N)=O [Goserelin] (max concentration tested 10000 nM)
Details	drug sensitivity score
[1]	0.04
[16]	0
[17]	0
[18]	0.01
[19]	0
[20]	0
[21]	0
[22]	0.26
[23]	5.4
[24]	0.49
[25]	0.22
[26]	0.84
[27]	0
[28]	0.34

percent inhibition of viability [%]
Details	1 nM	10 nM	100 nM	1000 nM	10000 nM
[2]	-19.4	-9.63	-24.4	-13.4	-9.52
[3]	-3.77	-5.54	7.78	0.8	-2.53
[4]	-8.43	-3.76	-4.51	-0.15	11.2
[5]	-5.2	-3.78	-7.91	-4.87	6.57
[6]	0.68	-4.54	-4.5	-0.44	-4.02
[7]	2.55	-1.49	10.9	10.5	-0.05
[8]	-13.2	-11.5	-12.2	0.66	14.8
[9]	-2.06	1.54	20.9	19.8	15.1
[10]	-6.11	-8.09	-5.17	-3.36	20.9
[11]	-6.03	-6.27	-2.35	5.13	11.8
[12]	-6.09	-9.54	-7.05	1.42	21.1
[13]	-9.13	-9.66	-6.69	-6.01	6.61
[14]	-9.16	-10.9	-7.22	-12.8	20.7
[15]	-6.58	-6.46	-10.9	-5.02	13.2

COc1cc2c(cc1-c1c(C)noc1C)ncc1[nH]c(=O)n([C@H](C)c3ccccn3)c12 [I-BET151] (max concentration tested 10000 nM)
Details	drug sensitivity score
[1]	6.57
[16]	16.1
[17]	6.22
[18]	6.36
[19]	14.1
[20]	17.4
[21]	9.37
[22]	12.4
[23]	7.37
[24]	8.36
[25]	8.63
[26]	7.74
[27]	11.1
[28]	1.57

percent inhibition of viability [%]
Details	1 nM	10 nM	100 nM	1000 nM	10000 nM
[2]	-9.22	-7.3	19.2	71.4	58.4
[3]	0.13	-4.21	7.82	12.9	73.7
[4]	-10.4	-6.13	-13.8	11.4	80.4
[5]	-6.56	-3.86	2.8	72	98.6
[6]	-3.21	-1.77	20	81.5	100
[7]	4.94	14.1	16.8	34.1	86.3
[8]	-4.89	-7.31	11.6	58.9	75
[9]	11.1	15.2	12.9	26.3	69
[10]	-4.09	-3.54	-0.4	36.2	69.4
[11]	-6.96	-4.14	1.63	30.1	81.5
[12]	-1.82	-7.24	-5.5	36.7	60.8
[13]	-6.04	0.41	9.82	50.3	86
[14]	-10.1	-10.2	-33.2	-7	39.9
[15]	-4.2	-5.61	-3.72	17.1	70.7
